The results in this text go back to US8288510B2, “Isolated peptides having phospholipase inhibitory activity” (priority 2008, dated 2012).

One assay addresses FOL wt. Briefly: Enzyme assay p-NP butyrate, inhibitory effect of peptides on FoL wildtype (Example 8). It is filed as biochemical, Fusarium oxysporum. The note with it: fitted against inhibitor/lipase ratio (peptide excess 0.5 to 1000), pH 7. The protocol:
(§1) Enzyme assay: The substrate used for these experiments was para-nitropenyl (p-NP) butyrate (N9876 Sigma Aldrich). A substrate stock solution was prepared by adding 18 μL of p-NP butyrate to 1 ml of 2-propanol giving a 100 mM stock solution. The working solution was prepared by diluting 500 μL stock solution in final volume of 50 mL 500 mM phosphate pH 7, 0.4% triton X-100. […] An enzyme substrate blank containing 60 μL was included. After pre-incubation in minimum 15 minutes, 100 μL of substrate was added and the reaction was followed in microtiter plate spectrophotometer (SPECTRAmax PLUS 384 from Molecular Devices) after an initial shaking (5 sec.) at room temperature. Colour development over time was monitored at A405 (every 20 sec. for 30 minutes), measuring p-nitrophenol, one of the degradation products of p-NP butyrate, liberated by the hydrolysis.
(§2) Initial reaction rates (determined as the linear initial slope of A405 plotted against time) were plotted against the logarithm to the inhibitor/lipase ratio. From the following model IC50 values were determined:
(§3) v0 is the initial reaction rate, vmax is the maximum rate, vmin is the minimum reaction rate and IC50 is the half maximal inhibitory concentration. GraphPad Prism (v.5.00, Mar. 12, 2007) from GraphPad Software, Inc. was used for regression.

The target in a further assay is FOL I207E variant. In words: Enzyme assay p-NP butyrate, inhibitory effect of peptides on FoL variant I207E (Example 8). It is filed as biochemical, Fusarium oxysporum. The note with it: for IC50 value (half maximal inhibitory concentration): FOL I207E variant, fitted against inhibitor/lipase ratio (peptide excess 0.5 to 1000), p-NP butyrate, pH 7. As to the method:
as §1, §2, §3

Assay [1] deals with T1, TLL variant N248G/Q249G/P250T/N251L/I252G/P253L (Thermomyces lanuginosus, UniProt O59952, I274G/N270G/N273L/P272T/P275L/Q271G).
T1 sequence (O59952 23-291 N270G/Q271G/P272T/N273L/I274G/P275L): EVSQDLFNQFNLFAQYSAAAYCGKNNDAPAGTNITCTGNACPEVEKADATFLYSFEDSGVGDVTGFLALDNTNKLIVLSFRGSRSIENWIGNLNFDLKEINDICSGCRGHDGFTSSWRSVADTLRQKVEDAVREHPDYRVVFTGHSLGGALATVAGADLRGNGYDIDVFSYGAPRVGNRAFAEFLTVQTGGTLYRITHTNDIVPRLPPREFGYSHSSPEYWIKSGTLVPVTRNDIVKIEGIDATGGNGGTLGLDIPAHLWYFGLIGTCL
Briefly: Enzyme assay p-NP butyrate, inhibitory effect of peptides on TLL variant (Example 9). In kind it is biochemical. The note with it: peptide/lipase ratios 5 to 5000 (P11, P13), 6 to 6000 (P12). As to the method:
as §1, §2, §3
Enzyme assay: As described above.

Assay [2] can be described thus: Lecithin plate assay, clearing zone (phospholipase activity). In kind it is biochemical. The note with it: for Clearing zone diameter: after 20 hours incubation.

FOL I207E variant, sequence (as listed by the source, stated change not applied): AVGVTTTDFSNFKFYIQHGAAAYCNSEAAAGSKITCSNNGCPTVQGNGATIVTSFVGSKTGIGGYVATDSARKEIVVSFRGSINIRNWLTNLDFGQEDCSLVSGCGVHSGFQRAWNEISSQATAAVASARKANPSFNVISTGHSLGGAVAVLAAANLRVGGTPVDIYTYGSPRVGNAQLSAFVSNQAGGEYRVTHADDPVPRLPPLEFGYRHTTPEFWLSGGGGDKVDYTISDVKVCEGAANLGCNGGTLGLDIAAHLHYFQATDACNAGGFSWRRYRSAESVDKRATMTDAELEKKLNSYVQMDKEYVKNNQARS

Take “ATMTDAELTKKLNSYVQMDKEYVKNNQARS [Peptide P2]”: the “IC50 value (half maximal inhibitory concentration)” value on FOL wt is recorded as “Very low”.

In the case of “ATMTEAELEKKLNSYVQMDKEYVKNNQARS [Peptide P1]”, at FOL wt, the “IC50 value (half maximal inhibitory concentration)” value is reported as “Very low”. Regarding ATMTDAELEKKLNSYVQMAKEYVKNNQARS [P1′], the “IC50 value (half maximal inhibitory concentration)” value at FOL wt and at FOL I207E variant was “No” throughout. In the case of “ATMTDAELEKKLNSYVQMDKEYVKNNQARS [Peptide P0]”, the “binding of the peptide by FoL variant I207E compared with wildtype enzyme (% inhibition curves, FIG. 8 C)” value in the assay with FOL I207E variant (0% inhibition assumed for lowest peptide concentration) is “better at binding the peptide than the wildtype enzyme”. As for “ATMTDAEVEKKLNSYVQMDKEYVKNNQARS [Peptide P11]”, the “IC50 value (half maximal inhibitory concentration)” value in assay [1] was “Very low”. Take “ATMTDAELEKKLNSYVQMDKEEVKNNQARS [Peptide P4]”: the “IC50 value (half maximal inhibitory concentration)” value on FOL wt is recorded as “No”; at FOL I207E variant, “Very low”.

B1: TLL: Thermomyces lanuginosus lipase, SEQ ID No. 9 (protein, listed as Thermomyces lanuginosus)
chain: EVSQDLFNQFNLFAQYSAAAYCGKNNDAPAGTNITCTGNACPEVEKADATFLYSFEDSGVGDVTGFLALDNTNKLIVLSFRGSRSIENWIGNLNFDLKEINDICSGCRGHDGFTSSWRSVADTLRQKVEDAVREHPDYRVVFTGHSLGGALATVAGADLRGNGYDIDVFSYGAPRVGNRAFAEFLTVQTGGTLYRITHTNDIVPRLPPREFGYSHSSPEYWIKSGTLVPVTRNDIVKIEGIDATGGNNQPNIPDIPAHLWYFGLIGTCL
As to B1, the Clearing zone diameter in assay [2] (ODA280 0.2) and in assay [2] (ODA280 0.5) was 0 mm throughout. In assay [2] (after 20 hours of incubation, ODA280 0.2 and 0.5), the “Clearing zone (in words)” value is reported as “did not show a clearing zone”.

B2: FoL: Fusarium oxysporum lipase, SEQ ID No. 1 (protein, listed as Fusarium oxysporum)
chain: AVGVTTTDFSNFKFYIQHGAAAYCNSEAAAGSKITCSNNGCPTVQGNGATIVTSFVGSKTGIGGYVATDSARKEIVVSFRGSINIRNWLTNLDFGQEDCSLVSGCGVHSGFQRAWNEISSQATAAVASARKANPSFNVISTGHSLGGAVAVLAAANLRVGGTPVDIYTYGSPRVGNAQLSAFVSNQAGGEYRVTHADDPVPRLPPLIFGYRHTTPEFWLSGGGGDKVDYTISDVKVCEGAANLGCNGGTLGLDIAAHLHYFQATDACNAGGFSWRRYRSAESVDKRATMTDAELEKKLNSYVQMDKEYVKNNQARS
For the molecule B2, the Clearing zone diameter in assay [2] (ODA280 0.2) came to 7 mm; in assay [2] (ODA280 0.5), 10 mm.
